According to US20240294535A1, “IMIDAZOTRIAZINE THIOBENZAMIDE DERIVATIVE, AND PREPARATION METHOD AND APPLICATION THEREOF” (Yunbaiyao Zhengwu Science and Technology (Shanghai) Co., …, priority 2023, published 2024):
Where two headings read alike, the source gives them in different places.

Assays:
[1] = in vivo; conditions: both, Kunming, mouse, po
[2] = target: c-MET (Homo sapiens (Human), UniProt P08581); test: c-MET kinase inhibitory activity (ELISA, poly(Glu,Tyr) substrate); type: biochemical; conditions: read-out: c-MET kinase inhibitory enzymatic activity IC50
Chain of c-MET (P08581 25-1390): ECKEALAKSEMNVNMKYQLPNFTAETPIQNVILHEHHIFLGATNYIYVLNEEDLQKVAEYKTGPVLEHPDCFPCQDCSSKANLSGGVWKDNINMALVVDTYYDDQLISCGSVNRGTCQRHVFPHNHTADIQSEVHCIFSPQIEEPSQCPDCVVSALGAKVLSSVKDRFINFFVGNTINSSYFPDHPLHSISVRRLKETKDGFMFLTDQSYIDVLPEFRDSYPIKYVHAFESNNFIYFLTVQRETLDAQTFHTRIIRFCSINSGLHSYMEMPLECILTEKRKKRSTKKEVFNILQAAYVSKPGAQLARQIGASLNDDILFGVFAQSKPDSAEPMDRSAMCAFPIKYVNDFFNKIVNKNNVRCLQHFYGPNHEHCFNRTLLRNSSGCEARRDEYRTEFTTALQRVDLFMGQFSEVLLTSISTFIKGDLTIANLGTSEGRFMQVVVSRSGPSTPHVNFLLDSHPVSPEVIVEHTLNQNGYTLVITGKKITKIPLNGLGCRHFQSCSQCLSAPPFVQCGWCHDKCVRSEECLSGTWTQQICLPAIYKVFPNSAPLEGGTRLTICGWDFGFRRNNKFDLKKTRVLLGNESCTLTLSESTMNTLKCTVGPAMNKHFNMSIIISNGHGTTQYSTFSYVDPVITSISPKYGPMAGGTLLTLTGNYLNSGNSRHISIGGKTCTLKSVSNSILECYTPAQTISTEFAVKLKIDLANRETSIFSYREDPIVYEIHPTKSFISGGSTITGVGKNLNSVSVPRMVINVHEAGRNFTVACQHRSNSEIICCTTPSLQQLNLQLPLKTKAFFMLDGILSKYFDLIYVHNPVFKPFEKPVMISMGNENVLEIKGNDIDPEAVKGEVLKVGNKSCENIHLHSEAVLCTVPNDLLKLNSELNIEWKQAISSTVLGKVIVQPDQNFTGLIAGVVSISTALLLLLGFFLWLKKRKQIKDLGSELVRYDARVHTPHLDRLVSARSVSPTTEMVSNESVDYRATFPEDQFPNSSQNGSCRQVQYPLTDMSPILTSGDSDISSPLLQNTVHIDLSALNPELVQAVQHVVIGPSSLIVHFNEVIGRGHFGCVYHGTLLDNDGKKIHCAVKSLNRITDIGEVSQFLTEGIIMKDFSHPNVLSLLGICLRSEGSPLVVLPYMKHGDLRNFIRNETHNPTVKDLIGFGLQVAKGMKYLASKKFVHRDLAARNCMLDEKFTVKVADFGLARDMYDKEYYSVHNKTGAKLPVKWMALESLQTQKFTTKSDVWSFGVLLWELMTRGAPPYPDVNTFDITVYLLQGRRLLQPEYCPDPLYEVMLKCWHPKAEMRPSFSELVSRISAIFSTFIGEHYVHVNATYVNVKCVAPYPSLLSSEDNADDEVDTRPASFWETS

[3] = tested on: Vero cells; test: Anti-proliferation activity, CTG, Vero cells; type: cell-based
Experimental: (§1) Experimental objective: To evaluate the anti-proliferation activities of the compounds against MKN-45 cells, EBC-1 cells, Hs746T cells and Vero cells.
(§2) Experimental methods: Tumor cell lines were cultured and periodically passaged, and cells in logarithmic growth phase were taken for plate spreading. The cells were stained with Trypan blue, counted and adjusted to an appropriate density. 50 μL of cell suspension was added into each well of a culture plate, and 50 μL of nutrient solution without cells was added into a blank control well. The culture plate was precultured for 24 h in an incubator under the condition of 37° C., 5% CO2 and 100% relative humidity.
(§3) The DMSO stock solutions of the compounds 1-28 and Capmatinib were prepared, and diluted with Tecan D300e. Each compound was diluted to 7 concentration levels: 0.50 μM, 0.125 μM, 0.031 μM, 0.0078 μM, 0.0020 μM, 0.00049 μM, 0.00012 μM. The experiment was carried out in triplicate.
(§4) 50 μL of the solution was added into each designated well, and the culture plate was incubated for 48 h. 50 μL of CTG working solution was added to each well. The culture plate was wrapped with aluminum foil to avoid light and shaken in the shaker for 2 min to induce cell lysis. The culture plate was placed at room temperature for 10 min to stabilize light-emitting signal which was detected with a 2014 EnVision plate reader. Experimental data was processed by GraphPad Prism 7 to calculate IC50.

[4] = tested on: Hs746T cells; test: Anti-proliferation activity, CTG, Hs746T cells; type: cell-based
Experimental: as §1, §2, §3, §4

[5] = tested on: EBC-1 cells; test: Anti-proliferation activity, CTG, EBC-1 cells; type: cell-based, human
Experimental: as §1, §2, §3, §4

[6] = tested on: MKN-45 cells; test: Anti-proliferation activity, CTG, MKN-45 cells; type: cell-based
Experimental: as §1, §2, §3, §4

[7] = tested on: SPF Kunming mice; conditions: mouse, in vivo, po
[8] = tested on: human EBC-1 cell subcutaneous xenograft model; test: In vivo anti-tumor assessment in EBC-1 cell xenograft tumor mouse model; design: species or system mice; conditions: 10 mg/kg P.O. QD × 15 days; for inhibition of growth of the tumor in mice (tumor volume change): end of the experiment, FIG. 2
Experimental: Experimental objective: To investigate in vivo efficacy of representative compounds on human lung squamous carcinoma cell (human EBC-1 cell) subcutaneous xenograft model.
Experimental methods: The EBC-1 cell xenograft tumor mouse model was used, according to the diameters of tumor, the tumor volume (TV), relative tumor volume (RTV), relative tumor proliferation rate (T/C (%)) and tumor growth inhibition value (TGI (%)) were calculated.
TGI (%) or T/C (%) of the compounds was evaluated. TGI (%) reflects a tumor growth inhibitory rate. TGI (%) was calculated as follows: TGI (%)=[1−(average tumor volume at the end of administration in a treatment group-average tumor volume at the beginning of administration in the treatment group)/(average tumor volume at the end in a solvent control group-average tumor volume at the beginning in the solvent control group)]×100%.
T/C (%) was calculated as follows: T/C (%)=TRTV/CRTV×100%; where TRTV is treatment RTV, and CRTV is negative control RTV. According to the measurement results of the tumor, RTV was calculated, and the calculating formula for RTV is as follows: RTV=Vt/V0; where V0 is the average tumor volume measured on the day of first administration; and Vt is the average tumor volume measured on a specified day. TRTV and CRTV were measured on the same day.

[9] = Chlorocebus sabaeus, Vero cells, 48 h, CTG
[10] = Homo sapiens, Hs746T cells, 48 h, CTG
[11] = Homo sapiens, EBC-1 cells, 48 h, CTG
[12] = Homo sapiens, MKN-45 cells, 48 h, CTG

Row | Compound | IC50 ([2]; ATP 4 μM, 37° C. 1 h) [nM] | LD50 [7] [mg/kg] | IC50 ([3]; Vero cells, 48 h, CTG) [nM] | IC50 ([4]; Hs746T cells, 48 h, CTG) [nM] | IC50 ([5]; EBC-1 cells, 48 h, CTG) [nM] | IC50 ([6]; MKN-45 cells, 48 h, CTG) [nM] | other results
1 | Fc1cc(-c2cnc3ncc(Cc4ccc5ncccc5c4)n3n2)ccc1C(=S)NC1CC1 [Compound 4] | 0.0025 | – | – | – | – | – | LD50 [1]: 320 mg/kg; IC50 [3, 9]: 216 nM; IC50 [4, 10]: 1.4 nM; IC50 [5, 11]: 1.8 nM; IC50 [6, 12]: 1.9 nM
2 | CNC(=S)c1ccc(-c2cnc3ncc(Cc4cc(Cl)c5ncccc5c4)n3n2)cc1F [Compound 15] | 0.0013 | 305 | 238 | 1.3 | 1.5 | 1.6 | –
3 | CNC(=S)c1ccc(-c2cnc3ncc(C(OC)c4ccc5ncccc5c4)n3n2)cc1F (stereo not shown) [Compound 23] | 0.0015 | 320 | 157 | 1.4 | 1.1 | 1.7 | –
4 | CNC(=S)c1ccc(-c2cnc3ncc(Cc4ccc5c(c4)OCO5)n3n2)cc1F [Compound 20] | 0.0021 | – | – | – | – | – | LD50 [1]: 305 mg/kg; IC50 [3, 9]: 164 nM; IC50 [4, 10]: 1.2 nM; IC50 [5, 11]: 1.8 nM; IC50 [6, 12]: 1.1 nM
5 | CNC(=S)c1ccc(-c2cnc3ncc(Cc4ccc5ncccc5c4)n3n2)cc1N [Compound 9] | 0.0017 | – | – | – | – | – | LD50 [1]: 297 mg/kg; IC50 [3, 9]: 252 nM; IC50 [4, 10]: 1.4 nM; IC50 [5, 11]: 1.6 nM; IC50 [6, 12]: 1.8 nM
6 | CNC(=S)c1ccc(-c2cnc3ncc(C(O)c4ccc5ncccc5c4)n3n2)cc1F (stereo not shown) [Compound 21] | 0.0014 | 298 | 132 | 1.1 | 1.3 | 1.2 | –
7 | CNC(=S)c1ccc(-c2cnc3ncc(Cc4ccc5ncccc5c4)n3n2)cc1OC [Compound 12] | 0.0019 | – | – | – | – | – | LD50 [1]: 286 mg/kg; IC50 [3, 9]: 236 nM; IC50 [4, 10]: 1.1 nM; IC50 [5, 11]: 1.7 nM; IC50 [6, 12]: 1.1 nM
8 | CNC(=S)c1ccc(-c2cnc3ncc(Cc4ccc5occc5c4)n3n2)cc1F [Compound 18] | 0.0013 | – | – | – | – | – | LD50 [1]: 302 mg/kg; IC50 [3, 9]: 148 nM; IC50 [4, 10]: 1.5 nM; IC50 [5, 11]: 1.1 nM; IC50 [6, 12]: 1.5 nM
9 | CNC(=S)c1ccc(-c2cnc3ncc(C(=O)c4ccc5ncccc5c4)n3n2)cc1F [Compound 22] | 0.0016 | – | 231 | 1.8 | 1.7 | 1.5 | –
10 | CN(C)C(=S)c1ccc(-c2cnc3ncc(Cc4ccc5ncccc5c4)n3n2)cc1F [Compound 2] | 0.0019 | – | – | – | – | – | LD50 [1]: 284 mg/kg; IC50 [3, 9]: 126 nM; IC50 [4, 10]: 1.4 nM; IC50 [5, 11]: 1.2 nM; IC50 [6, 12]: 1.1 nM
11 | CNC(=S)c1ccc(-c2cnc3ncc(C(N)c4ccc5ncccc5c4)n3n2)cc1F (stereo not shown) [Compound 26] | 0.0017 | 295 | 282 | 1.1 | 1.8 | 1.1 | –
12 | CNC(=S)c1ccc(-c2cnc3ncc(Cc4cc(F)c5ncccc5c4)n3n2)cc1F [Compound 13] | 0.0017 | 314 | 152 | 1.4 | 1.7 | 1.2 | –
13 | CNC(=S)c1ccc(-c2cnc3ncc(Cc4ccc5ncccc5c4)n3n2)c(F)c1F [Compound 7] | 0.0022 | 305 | 127 | 1.8 | 1.2 | 1.3 | –
14 | CNC(=S)c1ccc(-c2cnc3ncc(Cc4ccc5ncccc5c4)n3n2)cc1F [Compound 1] | 0.0022 | 293 | 129 | 1.6 | 1.4 | 1.5 | T/C(%) [8]: 15.09%; TGI(%) [8]: 103.24%; Tumor Volume (Day 15) [8]: 136 ± 17 mm^3; inhibition of growth of the tumor in mice (tumor volume change) [8]: better inhibitory effects
15 | CNC(=S)c1ccc(-c2cnc3ncc(C(F)(F)c4ccc5ncccc5c4)n3n2)cc1F [Compound 28] | 0.0018 | 294 | 237 | 1.4 | 1.2 | 1.5 | –
16 | CNC(=S)c1ccc(-c2cnc3ncc(Cc4ccc5ncccc5c4)n3n2)c(F)c1 [Compound 5] | 0.0021 | 298 | 138 | 1.6 | 1.2 | 1.6 | –
17 | CNC(=S)c1cc(F)c(-c2cnc3ncc(Cc4ccc5ncccc5c4)n3n2)cc1F [Compound 6] | 0.0015 | 292 | 116 | 1.9 | 1.9 | 1.9 | –
18 | CNC(=S)c1ccc(-c2cnc3ncc(Cc4cc(C(F)(F)F)c5ncccc5c4)n3n2)cc1F [Compound 16] | 0.0015 | 296 | 156 | 1.7 | 1.3 | 1.3 | T/C(%) [8]: 17.98%; TGI(%) [8]: 99.73%; Tumor Volume (Day 15) [8]: 162 ± 23 mm^3; inhibition of growth of the tumor in mice (tumor volume change) [8]: better inhibitory effects
19 | CNC(=S)c1ccc(-c2cnc3ncc(Cc4ccc5ncccc5c4)n3n2)cc1Cl [Compound 8] | 0.0019 | 321 | 142 | 1.8 | 1.8 | 1.7 | –
20 | CNC(=S)c1ccc(-c2cnc3ncc(/C(=N/OC)c4ccc5ncccc5c4)n3n2)cc1F [Compound 27] | 0.0019 | 310 | 163 | 1.8 | 1.5 | 1.3 | –
21 | CNC(=S)c1ccc(-c2cnc3ncc(C(c4ccc5ncccc5c4)N(C)C)n3n2)cc1F (stereo not shown) [Compound 25] | – | 287 | – | – | – | – | IC50 [2]: 0.0023 nM; IC50 [3]: 192 nM; IC50 [4]: 1.3 nM; IC50 [5]: 1 nM; IC50 [6]: 1.3 nM
